Assay results published in ChEMBL document CHEMBL1201861, “Genomics of Drug Sensitity in Cancer screening data, Wellcome Trust Sanger Institute”.

Assays:
Assay in all cases: cells
Assay type in all cases: functional, cell-based, Homo sapiens
EFO-21 = conditions: Homo sapiens, EFO-21;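 note: growth inhibition of EFO-21 cells measured with a viability assay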
Description: SANGER: Inhibition of human EFO-21 cell growth in a cell viability assay.

J82 = conditions: Homo sapiens, J82;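 note: growth inhibition of J82 cells, read out with a cell viability assay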
Description: SANGER: Inhibition of human J82 cell growth in a cell viability assay.

MeWo = conditions: Homo sapiens, MeWo;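 note: growth inhibition of MeWo cells, determined by a cell viability readout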
Description: SANGER: Inhibition of human Mewo cell growth in a cell viability assay.

NB7 = conditions: Homo sapiens, NB7;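 note: growth inhibition of NB7 cells, read out with a cell viability assay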
Description: SANGER: Inhibition of human NB7 cell growth in a cell viability assay.

YAPC = conditions: Homo sapiens, YAPC;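 note: growth inhibition of YAPC cells, measured with a cell viability assay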
Description: SANGER: Inhibition of human YAPC cell growth in a cell viability assay.

DK-MG = conditions: Homo sapiens, DK-MG;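 note: growth inhibition of DK-MG cells, read out with a cell viability assay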
Description: SANGER: Inhibition of human DK-MG cell growth in a cell viability assay.

UMC-11 = conditions: Homo sapiens, UMC-11;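 note: growth inhibition of UMC-11 cells, read out with a cell viability assay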
Description: SANGER: Inhibition of human UMC-11 cell growth in a cell viability assay.

HSC-3 = conditions: Homo sapiens, HSC-3
Description: SANGER: Inhibition of human HSC-3 cell growth in a cell viability assay.

TYK-nu = conditions: Homo sapiens, TYK-nu;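 note: growth inhibition of human TYK-nu cells, read out by a cell viability assay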
Description: SANGER: Inhibition of human TYK-nu cell growth in a cell viability assay.

Detroit 562 = conditions: Homo sapiens, Detroit 562;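 note: growth inhibition of human Detroit 562 cells, read out by a cell viability assay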
Description: SANGER: Inhibition of human Detroit562 cell growth in a cell viability assay.

C3A = conditions: Homo sapiens, C3A;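 note: growth inhibition of C3A human cells, quantified with a cell viability readout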
Description: SANGER: Inhibition of human C3A cell growth in a cell viability assay.

EPLC-272H = conditions: Homo sapiens, EPLC-272H
Description: SANGER: Inhibition of human EPLC-272H cell growth in a cell viability assay.

BALL-1 = conditions: Homo sapiens, BALL-1;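 note: growth inhibition of BALL-1 cells, read out with a cell viability assay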
Description: SANGER: Inhibition of human BALL-1 cell growth in a cell viability assay.

H9 = conditions: Homo sapiens, H9
Description: SANGER: Inhibition of human H9 cell growth in a cell viability assay.

NCI-H1993 = conditions: Homo sapiens, NCI-H1993;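 note: growth inhibition of the cancer cell line, assessed with a cell viability assay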
Description: SANGER: Inhibition of human NCI-H1993 cell growth in a cell viability assay.

NCI-H1792 = conditions: Homo sapiens, NCI-H1792;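 note: growth inhibition of human NCI-H1792 cells, read out as cell viability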
Description: SANGER: Inhibition of human NCI-H1792 cell growth in a cell viability assay.

CAL-85-1 = conditions: Homo sapiens, CAL-85-1;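 note: growth inhibition of human CAL-85-1 cells, read out with a cell viability assay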
Description: SANGER: Inhibition of human CAL-85-1 cell growth in a cell viability assay.

TI-73 = conditions: Homo sapiens, TI-73;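 note: cell viability assay measuring how much compounds suppress growth of the cultured cell line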
Description: SANGER: Inhibition of human TI-73 cell growth in a cell viability assay.

P12-Ichikawa = conditions: Homo sapiens, P12-Ichikawa
NCI-H2170 = conditions: Homo sapiens, NCI-H2170;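 note: cell viability assay measuring growth inhibition of human NCI-H2170 cancer cells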
Description: SANGER: Inhibition of human NCI-H2170 cell growth in a cell viability assay.

KYSE-140 = conditions: Homo sapiens, KYSE-140;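 note: cell viability assay measuring growth inhibition in human KYSE-140 cells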
Description: SANGER: Inhibition of human KYSE-140 cell growth in a cell viability assay.

RH-18 = conditions: Homo sapiens, Rh18;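 note: growth inhibition of human RH-18 cells, read out with a cell viability assay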
Description: SANGER: Inhibition of human RH-18 cell growth in a cell viability assay.

HGC-27 = conditions: Homo sapiens, HGC-27;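 note: growth inhibition of human HGC-27 cells, read out in a cell viability assay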
Description: SANGER: Inhibition of human HGC-27 cell growth in a cell viability assay.

DoTc2-4510 = conditions: Homo sapiens, DoTc2-4510
HEC-1 = conditions: Homo sapiens, HEC-1;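 note: growth inhibition of the cell line, read out with a cell viability assay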
Description: SANGER: Inhibition of human HEC-1 cell growth in a cell viability assay.

NCI-H1693 = conditions: Homo sapiens, NCI-H1693;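 note: growth inhibition of the human cell line, read out with a cell viability assay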
Description: SANGER: Inhibition of human NCI-H1693 cell growth in a cell viability assay.

MIA PaCa-2 = conditions: Homo sapiens, MIA PaCa-2;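 note: growth inhibition of MIA PaCa-2 cells, read out with a cell viability assay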
Description: SANGER: Inhibition of human MIA-PaCa-2 cell growth in a cell viability assay.

SW900 = conditions: Homo sapiens, SW900;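 note: IC50 is the concentration that inhibits SW900 cell growth, measured by a cell viability assay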
Description: SANGER: Inhibition of human SW900 cell growth in a cell viability assay.

NCI-H2009 = conditions: Homo sapiens, NCI-H2009;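 note: cell viability assay measuring inhibition of NCI-H2009 cell growth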
Description: SANGER: Inhibition of human NCI-H2009 cell growth in a cell viability assay.

SMILES | IC50 (EFO-21) | IC50 (MeWo) | IC50 (NB7) | IC50 (YAPC) | IC50 (DK-MG) | IC50 (UMC-11) | IC50 (HSC-3) | IC50 (TYK-nu) | IC50 (Detroit 562) | IC50 (C3A) | IC50 (EPLC-272H) | IC50 (BALL-1) | IC50 (H9) | IC50 (NCI-H1993) | IC50 (NCI-H1792) | IC50 (CAL-85-1) | IC50 (TI-73) | IC50 (P12-Ichikawa) | IC50 (NCI-H2170) | IC50 (KYSE-140) | other results
CCN(CC)CCCCNc1ncc2cc(-c3cc(OC)cc(OC)c3)c(NC(=O)NC(C)(C)C)nc2n1 [PD-173074] | > 2 µM | > 2000 nM | > 2000 nM | > 2 µM | > 2 µM | > 2000 nM | > 2000 nM | > 2 µM | > 2000 nM | > 2 µM | > 2 µM | > 2 µM | > 2000 nM | > 2 µM | > 2000 nM | > 2 µM | > 2 µM | > 2000 nM | > 2 µM | > 2 µM | IC50 (J82): > 2 µM; IC50 (RH-18): > 2 µM; IC50 (HGC-27): > 2 µM; IC50 (DoTc2-4510): > 2 µM; IC50 (HEC-1): > 2 µM; IC50 (NCI-H1693): > 2 µM; IC50 (MIA PaCa-2): > 2000 nM; IC50 (SW900): > 2 µM
COc1cc2c(Nc3ccc(NC(=O)c4ccccc4)cc3)ncnc2cc1OCCCN1CCOCC1 | 3.11 µM | > 4000 nM | 1750 nM | > 4 µM | > 4 µM | 2370 nM | 3370 nM | > 4 µM | 1730 nM | > 4 µM | > 4 µM | > 4 µM | 930 nM | > 4 µM | > 4000 nM | > 4 µM | > 4 µM | 224 nM | > 4 µM | > 4 µM | IC50 (J82): > 4 µM; IC50 (RH-18): > 4 µM; IC50 (HGC-27): > 4 µM; IC50 (DoTc2-4510): > 4 µM; IC50 (HEC-1): > 4 µM; IC50 (NCI-H1693): > 4 µM; IC50 (MIA PaCa-2): 3910 nM; IC50 (SW900): > 4 µM
CC(C)CCN1c2nc(Nc3cc(F)c(O)c(F)c3)ncc2N(C)C(=O)C1C (centres undefined) | > 5 µM | > 5000 nM | > 5000 nM | > 5 µM | > 5 µM | > 5000 nM | 818 nM | 3.54 µM | > 5000 nM | > 5 µM | 4.18 µM | > 5 µM | 60.2 nM | > 5 µM | 2740 nM | > 5 µM | > 5 µM | 2530 nM | > 5 µM | > 5 µM | IC50 (J82): > 5 µM; IC50 (NCI-H2009): > 5 µM; IC50 (RH-18): > 5 µM; IC50 (HGC-27): > 5 µM; IC50 (DoTc2-4510): > 5 µM; IC50 (HEC-1): > 5 µM; IC50 (NCI-H1693): > 5 µM; IC50 (MIA PaCa-2): 4360 nM; IC50 (SW900): > 5 µM
CC1(C)CNc2cc(NC(=O)c3cccnc3NCc3ccncc3)ccc21 [MOTESANIB] | > 2 µM | > 2000 nM | > 2000 nM | > 2 µM | > 2 µM | > 2000 nM | > 2000 nM | > 2 µM | > 2000 nM | > 2 µM | > 2 µM | > 2 µM | > 2000 nM | > 2 µM | > 2000 nM | > 2 µM | > 2 µM | > 2000 nM | > 2 µM | > 2 µM | IC50 (J82): > 2 µM; IC50 (RH-18): > 2 µM; IC50 (HGC-27): > 2 µM; IC50 (DoTc2-4510): > 2 µM; IC50 (HEC-1): > 2 µM; IC50 (NCI-H1693): > 2 µM; IC50 (MIA PaCa-2): > 2000 nM; IC50 (SW900): > 2 µM
Cn1cnc2c(F)c(Nc3ccc(Br)cc3Cl)c(C(=O)NOCCO)cc21 [SELUMETINIB] | 3.19 µM | 521 nM | > 4000 nM | > 4 µM | > 4 µM | > 4000 nM | 1190 nM | > 4 µM | > 4000 nM | > 4 µM | > 4 µM | > 4 µM | 22.9 nM | > 4 µM | > 4000 nM | > 4 µM | > 4 µM | 1160 nM | > 4 µM | > 4 µM | IC50 (RH-18): > 4 µM; IC50 (HGC-27): > 4 µM; IC50 (DoTc2-4510): > 4 µM; IC50 (HEC-1): > 4 µM; IC50 (NCI-H1693): > 4 µM; IC50 (MIA PaCa-2): 898 nM
